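A five-concentration, 48-hour dose response in 96-well plates underlies each endpoint, interpolated linearly between surrounding concentrations. TGI is the concentration that stops growth completely.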

Some test systems named below: A498 renal; A549 NSCLC; COLO 205 colon; EKVX NSCLC; HCC-2998 colon; HCT-116 colon; HCT-15 colon; HL-60(TB) leukemia; NCI-H226 lung; OVCAR-5 ovarian; OVCAR-8 ovarian; PC-3 prostate; SN12C renal; SR leukemia; U251 CNS; UACC-257 melanoma.
Common to all, as to assay: NCI anticancer screen, dose series, 48 h

As for `COc1cc2c(c3c1c(=O)c1ccccc1n3C)C=CC1(CCCCC1)O2`, the TGI with A498 renal was over 9.61 µM; in the test with A549 NSCLC, 4.43 µM; in the test on COLO 205 colon, over 10 µM; in the test with EKVX NSCLC it was over 10 µM; in the test with HCC-2998 colon, over 10 µM; with HCT-116 colon, over 10 µM. In addition, the TGI with HCT-15 colon, with HL-60(TB) leukemia, in the test on NCI-H226 lung, in the test on OVCAR-5 ovarian, in the test with OVCAR-8 ovarian and with PC-3 prostate was over 10 µM in each case. The TGI in the test with SN12C renal was over 10 µM; in the test with SR leukemia, 6.39 µM; in the test with U251 CNS, over 10 µM; in the test on UACC-257 melanoma it was over 10 µM.
On to `Oc1c(C2=N[C@H]3CCCC[C@@H]3N2)ccc2ccccc12`, for which the TGI is over 100 µM in the test with A498 renal; over 21.8 µM in the test with A549 NSCLC; over 100 µM in the test with COLO 205 colon; over 100 µM in the test on EKVX NSCLC; over 100 µM in the test with HCC-2998 colon; over 100 µM with HCT-116 colon. Also, the TGI with HCT-15 colon, with HL-60(TB) leukemia, with NCI-H226 lung, with OVCAR-5 ovarian, with OVCAR-8 ovarian and in the test with PC-3 prostate was over 100 µM throughout. The TGI in the test on SN12C renal, in the test on SR leukemia, with U251 CNS and with UACC-257 melanoma was over 100 µM in each case.
Take `O=[N+]([O-])c1cc(Cl)cc2cc(Cl)cnc12`: the TGI with A498 renal, in the test on A549 NSCLC, in the test with COLO 205 colon, with EKVX NSCLC, in the test on HCC-2998 colon and in the test on HCT-116 colon was over 100 µM in each case. In addition, the TGI with HCT-15 colon, in the test with HL-60(TB) leukemia, in the test on NCI-H226 lung, in the test with OVCAR-5 ovarian, in the test on OVCAR-8 ovarian and with PC-3 prostate was over 100 µM in each case. In addition, the TGI with SN12C renal, in the test with SR leukemia, in the test with U251 CNS and in the test with UACC-257 melanoma was over 100 µM each time.
In the case of `O=c1ccn2n1CCCCC2`, the TGI with A498 renal, in the test with A549 NSCLC, in the test on COLO 205 colon, in the test with EKVX NSCLC, in the test with HCC-2998 colon and in the test with HCT-116 colon was over 100 µM each time. The TGI with HCT-15 colon, in the test with HL-60(TB) leukemia, in the test with NCI-H226 lung, in the test with OVCAR-5 ovarian, in the test with OVCAR-8 ovarian and with PC-3 prostate was over 100 µM each time. For the same compound, the TGI in the test with SN12C renal, in the test with SR leukemia, in the test with U251 CNS and in the test on UACC-257 melanoma was over 100 µM each time.
Turning to `NCCCN1CCN(CC(=O)O)CCN(CCCN)CCN(CC(=O)O)CC1`, the TGI with A498 renal, in the test on A549 NSCLC, with COLO 205 colon, in the test with EKVX NSCLC, in the test on HCC-2998 colon and with HCT-116 colon was over 100 µM each time. The TGI with HCT-15 colon was over 100 µM; in the test on HL-60(TB) leukemia it was over 100 µM; in the test on NCI-H226 lung it was over 100 µM; in the test with OVCAR-5 ovarian, over 93.8 µM; with OVCAR-8 ovarian it was over 100 µM; with PC-3 prostate, over 100 µM. Further, the TGI in the test on SN12C renal, with SR leukemia, in the test with U251 CNS and in the test on UACC-257 melanoma was over 100 µM in each case.

The record behind these values is PubChem BioAssay (NCI).
